From the NIST ThermoML archive (doi:10.1021/je900596d)

Conditions: for mass density: Fluid (supercritical or subcritical phases), Vibrating tube method; for vapor or sublimation pressure: Liquid, Closed cell (Static) method

FC(F)=C(F)C(F)(F)F [hexafluoropropene]
Conditions	mass density [kg/m3]
358.16 K, 1948.8 kPa	133.66
358.16 K, 1982.5 kPa	137.05
358.16 K, 2016.7 kPa	140.6
358.16 K, 2051.6 kPa	144.28
358.16 K, 2085.7 kPa	147.98
358.16 K, 2118.7 kPa	151.7
358.16 K, 2152.9 kPa	155.54
358.16 K, 2185.6 kPa	159.34
358.16 K, 2250.5 kPa	167.24
358.16 K, 2283.4 kPa	171.42
358.16 K, 2316.3 kPa	175.71
358.16 K, 2349.2 kPa	180.05
358.16 K, 2381.8 kPa	184.6
358.16 K, 2414.3 kPa	189.16
358.16 K, 2462.8 kPa	196.45
358.16 K, 2529.2 kPa	206.94
358.16 K, 2562.6 kPa	212.61
358.16 K, 2581.2 kPa	215.74
358.16 K, 2616.7 kPa	222.24
358.16 K, 2635.2 kPa	225.67
358.16 K, 2669.9 kPa	232.45
358.16 K, 2703.7 kPa	239.44
358.16 K, 2738.3 kPa	247.03
358.16 K, 2771.6 kPa	254.87
358.16 K, 2806.3 kPa	263.68
358.16 K, 2839.2 kPa	272.73
358.16 K, 2872.4 kPa	282.77
358.16 K, 2905.9 kPa	293.88
358.16 K, 2939.1 kPa	305.79
358.16 K, 2972 kPa	319.7
358.16 K, 3000.1 kPa	333.22
358.16 K, 3003 kPa	334.75
358.16 K, 3005.7 kPa	336.23
358.16 K, 3008.2 kPa	337.55
358.16 K, 3010.9 kPa	338.92
358.16 K, 3013.2 kPa	340.27
358.16 K, 3015.5 kPa	341.83
358.16 K, 3017.6 kPa	343.29
358.16 K, 3019.8 kPa	344.7
358.16 K, 3022.4 kPa	346.21
358.16 K, 3025.8 kPa	348.17
358.16 K, 3027.8 kPa	349.31
358.16 K, 3031.6 kPa	351.6
358.16 K, 3035.5 kPa	354.08
358.16 K, 3037.5 kPa	355.4
358.16 K, 3041.3 kPa	357.97
358.16 K, 3045.1 kPa	360.72
358.16 K, 3047.1 kPa	362.14
358.16 K, 3050.9 kPa	364.96
358.16 K, 3054.3 kPa	367.81
358.16 K, 3057.8 kPa	370.74
358.16 K, 3061.2 kPa	373.72
358.16 K, 3064.5 kPa	376.75
358.16 K, 3067.7 kPa	379.88
358.16 K, 3071 kPa	383.12
358.16 K, 3074 kPa	386.4
358.16 K, 3077 kPa	389.78
362.9 K, 6.3 kPa	0.34
362.9 K, 8.4 kPa	0.44
362.9 K, 10.7 kPa	0.55
362.9 K, 15.1 kPa	0.65
362.9 K, 17.2 kPa	0.88
362.9 K, 20.8 kPa	1.04
362.9 K, 23 kPa	1.15
362.9 K, 25.2 kPa	1.27
362.9 K, 31.8 kPa	1.53
362.9 K, 34 kPa	1.65
362.9 K, 37.4 kPa	1.78
362.9 K, 40.2 kPa	2
362.9 K, 42.3 kPa	2.22
362.9 K, 47.8 kPa	2.29
362.9 K, 57.7 kPa	2.87
362.9 K, 64.3 kPa	3.19
362.9 K, 75.1 kPa	3.75
362.9 K, 81.7 kPa	4.07
362.9 K, 88 kPa	4.26
362.9 K, 96.7 kPa	4.85
362.9 K, 103.1 kPa	5.2
362.9 K, 109.4 kPa	5.38
362.9 K, 122.1 kPa	6.16
362.9 K, 128.4 kPa	6.44
362.9 K, 134.6 kPa	6.83
362.9 K, 140.8 kPa	7.19
362.9 K, 146.9 kPa	7.41
362.9 K, 153.1 kPa	7.6
362.9 K, 162.6 kPa	8.2
362.9 K, 172.6 kPa	8.83
362.9 K, 183.5 kPa	9.3
362.9 K, 191.9 kPa	9.53
362.9 K, 205.9 kPa	10.23
362.9 K, 217.1 kPa	10.89
362.9 K, 239.3 kPa	12.29
362.9 K, 250.5 kPa	12.86
362.9 K, 261.7 kPa	13.26
362.9 K, 272.8 kPa	13.91
362.9 K, 284 kPa	14.66
362.9 K, 294.9 kPa	14.96
362.9 K, 305.9 kPa	15.65
362.9 K, 322.3 kPa	16.67
362.9 K, 338.5 kPa	17.36
362.9 K, 354.9 kPa	18.21
362.9 K, 370.9 kPa	19.21
362.9 K, 386.8 kPa	19.93
362.9 K, 402.6 kPa	20.85
362.9 K, 418.2 kPa	21.77
362.9 K, 449.3 kPa	23.6
362.9 K, 485.1 kPa	25.57
362.9 K, 500.3 kPa	26.4
362.9 K, 520.6 kPa	27.39
362.9 K, 540.4 kPa	28.38
362.9 K, 560.3 kPa	29.54
362.9 K, 580 kPa	30.72
362.9 K, 599.7 kPa	31.79
362.9 K, 619.3 kPa	32.97
362.9 K, 638.8 kPa	34.15
362.9 K, 658.1 kPa	35.19
362.9 K, 677.4 kPa	36.24
362.9 K, 696.6 kPa	37.68
362.9 K, 715.6 kPa	38.68
362.9 K, 753.3 kPa	40.79
362.9 K, 772.1 kPa	41.86
362.9 K, 790.7 kPa	43.17
362.9 K, 809.2 kPa	44.11
362.9 K, 827.4 kPa	45.36
362.9 K, 845.6 kPa	46.55
362.9 K, 863.7 kPa	47.41
362.9 K, 881.6 kPa	48.62
362.9 K, 899.5 kPa	49.68
362.9 K, 917.1 kPa	50.72
362.9 K, 934.7 kPa	52.13
362.9 K, 952.2 kPa	53.09
362.9 K, 969.4 kPa	54.03

Conditions	vapor or sublimation pressure [kPa]
358.26 K	3095.1
358.76 K	3128.1
